Experimental data published in patent US12031897B2, “Target-locking single-molecule nanoscopy” (Memorial Sloan Kettering Cancer Center, priority 2019, dated 2024).

Key:
[1] = test system: SiR-Rpb1 (Pol II) in the nucleus of U2-OS cells; assay: SiR-Rpb1 FRAP in the nucleus of clone 5 cells; assay type: cell-based, human; conditions: after ~30-40 minutes incubation with 10 μM Flavopiridol
From the text: Live cell imaging experiments (SiR-Rpb1 FRAP). For SiR-Rpb1 FRAP experiments, time lapse images were acquired at 1 fps at a focal point adjusted at the mid-plane of the nucleus. To bleach molecules at a spot in the nucleus, an iris was used to block all but a small circle in the center of the excitation beam, the dynamic diffuser was removed and ˜[…] 642 nm laser power was applied for ˜10 seconds. Then, the 642 nm laser power was reduced to ˜7 W/μm2, the diffuser was put back in the optical path (resulting in additional drop in the power reaching the sample), the iris was removed and time-lapse acquisition continued. The recovery trace of SiR-Rpb1 at the bleached spot was corrected for photobleaching using the intensity of nearby (non-photobleached) regions in the nucleus.
Quantification of signal (S) and immobile background (Bi) at the transcription site. […] This behavior reflects gradual photobleaching of Pol II molecules residing within the excitation volume during the measurement and a constant background of molecules rapidly diffusing in and out. […] The Bi/Bd ratio is also consistent with: (i) Fluorescence Recovery After Photobleaching (FRAP) measurements at random nuclear locations (FIGS. 11K, 11L), showing that ˜40% of total Pol II is immobile (recovery time ˜20 min) and likely transcriptionally engaged; (ii) previous GFP-Pol II FRAP results in a related system.

[2] = test system: Pol II (FLAG-SNAP-Rpb1) at the Pou5f1 locus; assay: ChIP-qPCR of Pol II at the Pou5f1 locus after flavopiridol treatment (mESCs); assay type: cell-based, mouse; conditions: 10 μM flavopiridol; by the 5-minute and 12.5-minute time points respectively
Protocol: mESCs. Confluent 15 cm dishes (˜10×10^6 OMG SNAP-Rpb1 clone 3 cells) were treated with 10 μM Flavopiridol or DMSO for the indicated times. Methanol-free formaldehyde (Thermo Fisher) was then directly added to the media to 1% v/v final concentration, and dishes were immediately placed on a rotator/shaker for 10 min at RT. Formaldehyde was quenched with 125 mM glycine for 5 min at RT, and cells were scraped and collected with centrifugation (800×g, 5 min at 4° C.) and washed twice with cold PBS. Cells were lysed with SDS lysis buffer (50 mM Tris-HCl pH 8, 10 mM EDTA, 1% SDS) containing protease inhibitors, and placed on ice for 10 min. Volume equivalent to 2×10^6 cells was sonicated to shear the chromatin (Branson SFX 150), and cleared using centrifugation (12,000 g, 10 min at 4° C.). The supernatant was diluted 1:10 in dilution buffer (0.01% SDS, 1.1% Triton X-100, 1.2 mM EDTA, 16.7 mM Tris-HCl pH 8, 167 mM NaCl)+protease inhibitors, pre-cleared using magnetic Protein G beads (Thermo Fisher Scientific 10003 D), for ˜2 hr at 4° C., cleared by separating the beads with a magnet, and 2% of the pre-cleared supernatant was kept at −20° C. as input. […] Eluted chromatin was analyzed with qPCR, using primer pairs specific for different Pou5f1/Oct4 regions.

Compound: CN1CC[C@H](c2c(O)cc(O)c3c(=O)cc(-c4ccccc4Cl)oc23)[C@H](O)C1 [flavopiridol]
- slow-recovering immobile Pol II population (FRAP) ([1]; ~40% in absence of Flavopiridol): 10-15%
- fast FRAP recovery of SiR-Rpb1 ([1]; ~60% in absence): 85-90%
- Pol II ChIP signal at Pou5f1 gene body and 3'UTR regions [2]: significant and near-complete losses
